Numbers after ± are expanded uncertainties.
Details: Liquid, Hot wire method

FC(F)(F)/C=C/Cl [(E)-1-chloro-3,3,3-trifluoroprop-1-ene]
Details | thermal conductivity [W/m/K]
263.11 K, 10284 kPa | 0.09779 ± 0.0036
263.11 K, 15941 kPa | 0.1 ± 0.0031
263.12 K, 275 kPa | 0.09368 ± 0.0028
263.12 K, 5037 kPa | 0.09578 ± 0.0032
263.3 K, 65213 kPa | 0.1155 ± 0.0043
263.31 K, 42853 kPa | 0.1092 ± 0.0037
263.34 K, 36413 kPa | 0.1071 ± 0.0032
263.35 K, 59142 kPa | 0.1143 ± 0.0054
263.39 K, 51112 kPa | 0.1115 ± 0.0034
263.4 K, 29224 kPa | 0.1049 ± 0.0032
263.45 K, 22281 kPa | 0.1026 ± 0.0034
263.48 K, 65190 kPa | 0.115 ± 0.0043
263.49 K, 15926 kPa | 0.1002 ± 0.0047
263.5 K, 10264 kPa | 0.0981 ± 0.0046
263.5 K, 42848 kPa | 0.1085 ± 0.0034
263.52 K, 5059 kPa | 0.09603 ± 0.0038
263.53 K, 267 kPa | 0.09392 ± 0.0032
263.53 K, 36413 kPa | 0.1068 ± 0.0034
263.54 K, 59138 kPa | 0.1137 ± 0.0039
263.58 K, 51103 kPa | 0.1112 ± 0.0038
263.59 K, 29225 kPa | 0.1044 ± 0.0032
263.64 K, 22275 kPa | 0.1022 ± 0.0039
263.7 K, 15944 kPa | 0.09988 ± 0.0034
263.71 K, 10281 kPa | 0.09774 ± 0.003
263.73 K, 5041 kPa | 0.09557 ± 0.0033
263.75 K, 278 kPa | 0.09344 ± 0.0035
263.84 K, 65191 kPa | 0.1154 ± 0.0036
263.88 K, 42851 kPa | 0.1087 ± 0.0035
263.91 K, 36412 kPa | 0.1071 ± 0.0036
263.95 K, 51092 kPa | 0.1113 ± 0.0042
263.98 K, 29226 kPa | 0.1045 ± 0.004
264.05 K, 65174 kPa | 0.1149 ± 0.0038
264.1 K, 42852 kPa | 0.1085 ± 0.0033
264.11 K, 59122 kPa | 0.1132 ± 0.0058
264.13 K, 36411 kPa | 0.1066 ± 0.0043
264.17 K, 51091 kPa | 0.1108 ± 0.0044
264.21 K, 29227 kPa | 0.1042 ± 0.0038
281.25 K, 20968 kPa | 0.09541 ± 0.022
281.29 K, 10961 kPa | 0.09337 ± 0.0087
281.3 K, 3101 kPa | 0.08933 ± 0.003
281.3 K, 6243 kPa | 0.09051 ± 0.0061
281.31 K, 203 kPa | 0.08831 ± 0.0064
281.31 K, 16036 kPa | 0.09555 ± 0.0064
281.32 K, 20959 kPa | 0.09554 ± 0.0041
281.36 K, 10962 kPa | 0.09248 ± 0.0068
281.38 K, 3093 kPa | 0.0889 ± 0.0029
281.38 K, 6225 kPa | 0.09019 ± 0.0045
281.39 K, 193 kPa | 0.08772 ± 0.0054
281.61 K, 39518 kPa | 0.1031 ± 0.0039
281.62 K, 46215 kPa | 0.1057 ± 0.0032
281.62 K, 55364 kPa | 0.1084 ± 0.0033
281.64 K, 16024 kPa | 0.09394 ± 0.0069
281.64 K, 33249 kPa | 0.1009 ± 0.0057
281.64 K, 64739 kPa | 0.1107 ± 0.0045
281.65 K, 20972 kPa | 0.09689 ± 0.0067
281.65 K, 27078 kPa | 0.0987 ± 0.0031
281.7 K, 10959 kPa | 0.09251 ± 0.0069
281.71 K, 39517 kPa | 0.103 ± 0.0041
281.71 K, 55366 kPa | 0.1082 ± 0.004
281.72 K, 6236 kPa | 0.09039 ± 0.0029
281.72 K, 46217 kPa | 0.1053 ± 0.0033
281.73 K, 3096 kPa | 0.08936 ± 0.0039
281.73 K, 33252 kPa | 0.1011 ± 0.0032
281.73 K, 64721 kPa | 0.1106 ± 0.0042
281.74 K, 201 kPa | 0.08787 ± 0.0061
281.75 K, 16022 kPa | 0.09421 ± 0.0077
281.75 K, 20962 kPa | 0.09616 ± 0.0055
281.75 K, 27071 kPa | 0.09865 ± 0.0038
281.8 K, 10956 kPa | 0.0923 ± 0.0029
281.83 K, 6219 kPa | 0.09017 ± 0.0027
281.85 K, 185 kPa | 0.08733 ± 0.0031
281.85 K, 3101 kPa | 0.08903 ± 0.0037
282.03 K, 55362 kPa | 0.1085 ± 0.0044
282.04 K, 64705 kPa | 0.1107 ± 0.0034
282.05 K, 39515 kPa | 0.1034 ± 0.0032
282.05 K, 46209 kPa | 0.1055 ± 0.0038
282.08 K, 33242 kPa | 0.1012 ± 0.0031
282.1 K, 27075 kPa | 0.09876 ± 0.003
282.11 K, 16012 kPa | 0.09449 ± 0.0041
282.11 K, 20964 kPa | 0.09638 ± 0.0036
282.15 K, 46205 kPa | 0.1054 ± 0.0038
282.15 K, 55358 kPa | 0.108 ± 0.0044
282.15 K, 64700 kPa | 0.1104 ± 0.0034
282.16 K, 39512 kPa | 0.103 ± 0.0031
282.18 K, 10959 kPa | 0.09237 ± 0.0029
282.2 K, 33255 kPa | 0.101 ± 0.0031
282.21 K, 6234 kPa | 0.09065 ± 0.0029
282.22 K, 3104 kPa | 0.08891 ± 0.003
282.23 K, 27070 kPa | 0.09861 ± 0.0031
282.24 K, 198 kPa | 0.08741 ± 0.0029
282.24 K, 16024 kPa | 0.0943 ± 0.0032
282.24 K, 20959 kPa | 0.09631 ± 0.0037
282.31 K, 10962 kPa | 0.09207 ± 0.0028
282.35 K, 6225 kPa | 0.09024 ± 0.0028
282.37 K, 3126 kPa | 0.08877 ± 0.0027
282.38 K, 188 kPa | 0.08744 ± 0.0032
282.5 K, 55349 kPa | 0.108 ± 0.0051
282.5 K, 64686 kPa | 0.1105 ± 0.0035
282.52 K, 39509 kPa | 0.103 ± 0.0034
282.52 K, 46199 kPa | 0.1053 ± 0.0032
282.57 K, 33243 kPa | 0.101 ± 0.0038
282.6 K, 27082 kPa | 0.09879 ± 0.003
282.62 K, 16026 kPa | 0.09446 ± 0.0029
282.62 K, 20964 kPa | 0.09651 ± 0.003
282.63 K, 64675 kPa | 0.1105 ± 0.0035
282.64 K, 55348 kPa | 0.1078 ± 0.0035
282.67 K, 39508 kPa | 0.103 ± 0.0032
282.67 K, 46193 kPa | 0.105 ± 0.0034
282.71 K, 10958 kPa | 0.09238 ± 0.0028
282.73 K, 33247 kPa | 0.1009 ± 0.0032
282.75 K, 6236 kPa | 0.09029 ± 0.0034
282.75 K, 27089 kPa | 0.09858 ± 0.003
282.78 K, 3125 kPa | 0.08898 ± 0.0028
282.78 K, 20962 kPa | 0.09627 ± 0.0031
282.79 K, 16015 kPa | 0.09427 ± 0.003
282.8 K, 194 kPa | 0.08765 ± 0.0027
282.88 K, 10957 kPa | 0.09201 ± 0.0028
282.92 K, 6218 kPa | 0.09006 ± 0.0027
282.95 K, 3110 kPa | 0.08875 ± 0.0028
282.97 K, 194 kPa | 0.08733 ± 0.0028
282.99 K, 64664 kPa | 0.1105 ± 0.0034
283 K, 55335 kPa | 0.1078 ± 0.0033
283.04 K, 46194 kPa | 0.1053 ± 0.0032
283.06 K, 39510 kPa | 0.1032 ± 0.0031
283.12 K, 33245 kPa | 0.1008 ± 0.0031
283.15 K, 64649 kPa | 0.1103 ± 0.0033
283.16 K, 27095 kPa | 0.09871 ± 0.003
283.18 K, 20963 kPa | 0.09653 ± 0.0031
283.18 K, 55341 kPa | 0.1078 ± 0.0034
283.21 K, 16028 kPa | 0.09435 ± 0.0034
283.21 K, 46185 kPa | 0.105 ± 0.0032
283.24 K, 39508 kPa | 0.103 ± 0.0031
283.29 K, 10953 kPa | 0.09216 ± 0.0028
283.29 K, 33245 kPa | 0.1006 ± 0.0032
283.34 K, 27084 kPa | 0.09839 ± 0.0034
283.35 K, 6234 kPa | 0.09024 ± 0.0033
283.38 K, 3103 kPa | 0.08892 ± 0.0028
283.38 K, 20960 kPa | 0.09617 ± 0.0031
283.39 K, 16020 kPa | 0.09411 ± 0.0032
283.42 K, 178 kPa | 0.08755 ± 0.0027
283.5 K, 10953 kPa | 0.09198 ± 0.0028
283.54 K, 64641 kPa | 0.1105 ± 0.0035
283.55 K, 6234 kPa | 0.08992 ± 0.003
283.57 K, 55328 kPa | 0.108 ± 0.0033
283.59 K, 3103 kPa | 0.08855 ± 0.0033

— the NIST ThermoML archive (doi:10.1021/acs.jced.7b00106)
